From patent publication US20210246115A1 (Bioimics AB, priority 2017, published 2021) come the findings set out here.

≈ marks a conversion by molar mass, not a printed value. Where a name gives a salt, the structure may show the parent alone. Read-outs that look alike come from different tables or passages of the source. Where only a bound is given, the exact number is not on record here.

The subject of assay [1] is Staphylococcus aureus subsp. aureus (ATCC29213). The experiment in a line: MIC, broth microdilution (CLSI), Staphylococcus aureus ATCC29213. In kind it is cell-based. To be noted: for MIC: Staphylococcus aureus. Background: Broth dilution looks for growth in wells or tubes with falling amounts of substance.
Assay [2] deals with Escherichia coli (ATCC25922). In words: MIC, broth microdilution (CLSI), Escherichia coli. To be noted: for MIC: Escherichia coli, ATCC25922, read-out: E. coli ATCC 25922 MIC, Table XIII.
The mark [3] stands for this setting: ATCC29213, read-out: S. aureus ATCC 29213 MIC, Table XIII.
Where [4] appears, read: ATCC29213, Table XIII, read-out: S. aureus ATCC 29213 MIC.

The term MIC denotes the smallest concentration in the dilution series that meets the test's criterion for growth inhibition. On to `N[C@H]1CC[C@H](NCCC(c2ccncc2)c2cn(C3CC4CCC3C4)c3ccccc23)CC1` (stereo partly drawn) [Compound 336, (1R,4R)-N1-(3-(1-(bicyclo[2.2.1]heptan-2-yl)-1H-indol-3-yl)-3-(pyridin-4-yl)propyl)cyclohexane-1,4-diamine hydrochloride salt], for which the MIC in assay [1] (setting [3]) worked out at 64 µg/mL; in assay [2], 128 µg/mL.
With `Cc1cccc(C(CCNCCCN)c2cn(CC3CCCCC3)c3ccccc23)c1.Cl.Cl` (stereo not drawn) [Compound 346, N1-(3-(1-(cyclohexylmethyl)-1H-indol-3-yl)-3-(m-tolyl)propyl)propane-1,3-diamine hydrochloride salt], the MIC in assay [1] (setting [4]) and in assay [2] was 8 µg/mL throughout.
Regarding `Cc1cccc(C(CCNCC2OC(CO)C(O)C(O)C2O)c2cn(C3CCCCC3)c3ccccc23)c1` (stereo not drawn) [Compound 391, 2-(((3-(1-cyclohexyl-1H-indol-3-yl)-3-(m-tolyl)propyl)amino)methyl)-6-(hydroxymethyl) tetrahydro-2H-pyran-3,4,5-triol], the minimum inhibitory concentration (MIC) in assay [1] (setting [3]) was 64 µg/mL (≈ 122 µM); in assay [2] it was 128 µg/mL (≈ 245 µM).
Turning to `CC(=O)N1CCC(N(CCC(c2cccc(C)c2)c2cn(C3CCCCC3)c3ccccc23)C(C)=O)CC1` (stereo not drawn) [Compound 354, N-(1-acetylpiperidin-4-yl)-N-(3-(1-cyclohexyl-1H-indol-3-yl)-3-(m-tolyl)propyl)acetamide salt], the MIC was 128 µg/mL in assay [1] (setting [4]) and > 128 µg/mL in assay [2].
As for `Cl.Cl.NCCCNCCC(c1cccnc1)c1cn(C2CC3CCC2C3)c2ccccc12` (stereo not drawn) [Compound 328, N1-(3-(1-(bicyclo[2.2.1]heptan-2-yl)-1H-indol-3-yl)-3-(pyridin-3-yl)propyl)propane-1,3-diamine hydrochloride salt], the MIC stood at 32 µg/mL in assay [1] (setting [4]) and 64 µg/mL in assay [2].
Taken in the same sequence, the figures for `Cc1cccc(C(CCNCC2(CN)CC2)c2cn(C3CCCCC3)c3ccccc23)c1` (stereo not drawn) [Compound 390, N-((1-(aminomethyl)cyclopropyl)methyl)-3-(1-cyclohexyl-1H-indol-3-yl)-3-(m-tolyl)propan-1-amine] were 8 µg/mL (≈ 18.6 µM) and 8 µg/mL (≈ 18.6 µM).
Take `COC(=O)c1ccc2c(c1)c(CNCC1CCNCC1)cn2CC1CCCCC1` [Compound 304, methyl 1-(cyclohexylmethyl)-3-(((piperidin-4-ylmethyl)amino)methyl)-1H-indole-5-carboxylate hydrochloride salt]: the MIC in assay [1] (setting [3]) was 64 µg/mL; in assay [2], > 128 µg/mL.
As to `Cc1cccc(C(CCNCCCN)c2cn(C3CCCCC3)c3ccc(C(=O)O)cc23)c1` (stereo not drawn) [Compound 387, 3-(3-((3-aminopropyl)amino)-1-(m-tolyl)propyl)-1-cyclohexyl-1H-indole-5-carboxylic acid compound with 2,2,2-trifluoroacetaldehyde (1:2)], the MIC in assay [1] (setting [4]) was 128 µg/mL (≈ 286 µM); in assay [2], > 128 µg/mL.
Regarding `COc1cccc(C(CCNC2CCC(N)CC2)c2cn(C3CCCCC3)c3ccc(C#N)cc23)c1` (stereo not drawn) [Compound 400, 3-(3-(((1s,4s)-4-aminocyclohexyl)amino)-1-(3-methoxyphenyl)propyl)-1-cyclohexyl-1H-indole-5-carbonitrile hydrochloride salt], the MIC in assay [1] (setting [3]) and in assay [2] was 16 µg/mL in each case.
`NC1CCC(NCCC(c2cccnc2)c2cn(CC3CCCCC3)c3ccccc23)CC1` (stereo not drawn) [Compound 319, N1-(3-(1-(cyclohexylmethyl)-1H-indol-3-yl)-3-(pyridin-3-yl)propyl) cyclohexane-1,4-diamine hydrochloride salt]: the minimum inhibitory concentration (MIC) in assay [1] (setting [3]) stood at 32 µg/mL; in assay [2], 64 µg/mL.
`CCN(Cc1cn(CC2CCCCC2)c2ccccc12)CC1CCN(C)CC1` [Compound 303, N-((1-(cyclohexylmethyl)-1H-indol-3-yl)methyl)-N-((1-methylpiperidin-4-yl)methyl)ethanamine]: the minimum inhibitory concentration (MIC) in assay [1] (setting [4]) and in assay [2] was 128 µg/mL (≈ 335 µM) each time.
As for `Cl.Cl.c1ccc2c(c1)c(C(CCNC1CCNCC1)c1ccncc1)cn2C1CC2CCC1C2` (stereo not drawn) [Compound 337, N-(3-(1-(bicyclo[2.2.1]heptan-2-yl)-1H-indol-3-yl)-3-(pyridin-4-yl)propyl)piperidin-4-amine hydrochloride salt], the values for the MIC in assay [1] (setting [4]) and in assay [2] were 32 µg/mL and 64 µg/mL, respectively.
On to `Cc1cccc(C(CCNC2CCNCC2)c2cn(C3CCNCC3)c3ccccc23)c1` (stereo not drawn) [Compound 317, N-(3-(1-(piperidin-4-yl)-1H-indol-3-yl)-3-(m-tolyl)propyl)piperidin-4-amine hydrochloride salt], for which the figures for the MIC in assay [1] (setting [3]) and in assay [2] were 64 µg/mL and > 128 µg/mL, respectively.
On to `Cl.Cl.N[C@H]1CC[C@H](NCCC(c2cn(C3CCCCC3)c3ccccc23)C2CCCCC2)CC1` (stereo partly drawn) [Compound 378], for which the MIC in assay [1] (setting [4]) turned out to be 4 µg/mL; in assay [2], 8 µg/mL.
`Cc1cccc(C(CCNC2CCC(N)CC2)c2cn(C3CCNCC3)c3ccccc23)c1` (stereo not drawn) [Compound 306, N1-(3-(1-(piperidin-4-yl)-1H-indol-3-yl)-3-(m-tolyl)propyl)cyclohexane-1,4-diamine hydrochloride salt]: the figures for the MIC in assay [1] (setting [3]) and in assay [2] were 16 µg/mL and > 128 µg/mL, respectively.
Consider `Cc1cccc(C(CCNC2CCC(N)CC2)c2cn(C3CCCCC3)c3ccccc23)c1` [Compound 392, (1S,4S)- -N1-(3-(1-cyclohexyl-1H-indol-3-yl)-3-(m-tolyl)propyl) cyclohexane-1,4-diamine hydrochloride salt], for which the “S. aureus ATCC 29213 MIC” value in assay [1] (Table XIII, hydrochloride salt) was found to be 8 µg/mL. Besides, in assay [2] (Table XIII, hydrochloride salt), the “E. coli ATCC 25922 MIC” value was 8 µg/mL.
With `Cc1cccc(C(CCOCCCN(C)C)c2cn(C3CCCCC3)c3ccccc23)c1` (stereo not drawn) [Compound 364, 3-(3-(1-cyclohexyl-1H-indol-3-yl)-3-(m-tolyl)propoxy)-N,N-dimethylpropan-1-amine salt], the minimum inhibitory concentration (MIC) in assay [1] (setting [4]) was 8 µg/mL; in assay [2], > 128 µg/mL.
With `Cc1cccc(C(CCNCCCCN)c2cn(C3CCCCC3)c3ccccc23)c1.Cl.Cl` (stereo not drawn) [Compound 350, N1-(3-(1-cyclohexyl-1H-indol-3-yl)-3-(m-tolyl)propyl)butane-1,4-diamine salt], the minimum inhibitory concentration (MIC) in assay [1] (setting [4]) and in assay [2] was 8 µg/mL throughout.
As to `Cl.Cl.NCCCNCCCc1cn(C2CCCCC2)c2ccc(Br)cc12` [Compound 359, N1-(3-(5-bromo-1-cyclohexyl-1H-indol-3-yl)propyl)propane-1,3-diamine hydrochloride salt], the minimal inhibitory concentration (MIC) in assay [1] (setting [4]) and in assay [2] was 16 µg/mL throughout.
Regarding `CCN(Cc1cn(CC2CCCCC2)c2ccccc12)CC1CCNCC1` [Compound 302, hydrochloride salt], the MIC in assay [1] (setting [3]) and in assay [2] was 128 µg/mL each time.
Turning to `Cc1cccc(C(CCNCC2CNCCO2)c2cn(C3CCCCC3)c3ccc(Br)cc23)c1` (stereo not drawn) [Compound 405, 3-(5-bromo-1-cyclohexyl-1H-indol-3-yl)-N-(morpholin-2-ylmethyl)-3-(m-tolyl)propan-1-amine hydrochloride salt], the minimal inhibitory concentration (MIC) in assay [1] (setting [3]) stood at 8 µg/mL; in assay [2], 16 µg/mL.
On to `Cc1cccc(C(CCN(C#N)C2CCC(NC(N)=O)CC2)c2cn(C3CCCCC3)c3ccccc23)c1` [Compound 361, 1-(((1S,4S)-4-(N-(3-(1-cyclohexyl-1H-indol-3-yl)-3-(m-tolyl)propyl)cyanamido)cyclohexyl)urea salt], for which the MIC in assay [1] (setting [4]) and in assay [2] was > 128 µg/mL throughout.
On to `N#Cc1ccc2c(c1)c(C1CCCC(NCCCN)C1)cn2C1CCCCC1` (stereo not drawn) [Compound 389, 3-(3-((3-aminopropyl)amino)cyclohexyl)-1-cyclohexyl-1H-indole-5-carbonitrile], for which the figures for the MIC in assay [1] (setting [4]) and in assay [2] were 16 µg/mL (≈ 42.3 µM) and 32 µg/mL (≈ 84.5 µM), respectively.
As for `Cc1cccc(C(CCNC2CCNCC2)c2cn(CC3CCNCC3)c3ccccc23)c1` (stereo not drawn) [Compound 315, N-(3-(1-(piperidin-4-ylmethyl)-1H-indol-3-yl)-3-(m-tolyl)propyl) piperichn-4-amine hydrochloride salt], the MIC in assay [1] (setting [3]) was 64 µg/mL; in assay [2], > 128 µg/mL.
In the case of `CNCCCNCCC(c1cccc(C)c1)c1cn(C2CCCCC2)c2ccccc12.Cl.Cl` (stereo not drawn) [Compound 368, N1-(3-(1-cyclohexyl-1H-indol-3-yl)-3-(m-tolyl)propyl)-N3-methylpropane-1,3-diamine hydrochloride], the MIC in assay [1] (setting [4]) and in assay [2] was 8 µg/mL each time.
Turning to `CN(Cc1cn(CC2CCCCC2)c2ccccc12)CC1CCNCC1` [Compound 301, 1-(1-(cyclohexylmethyl)-1H-indol-3-yl)-N-methyl-N-(piperidin-4-ylmethyl)methanamine hydrochloride salt], the MIC in assay [1] (setting [3]) and in assay [2] was 128 µg/mL throughout.
As for `Cl.Cl.NCCCNCCC(c1ccncc1)c1cn(C2CC3CCC2C3)c2ccccc12` (stereo not drawn) [Compound 338, N1-(3-(1-(bicyclo[2.2.1]heptan-2-yl)-1H-indol-3-yl)-3-(pyridin-4-yl)propyl)propane-1,3-diamine hydrochloride salt], the results for the MIC in assay [1] (setting [4]) and in assay [2] were 64 µg/mL and 128 µg/mL, respectively.
With `Cc1cccc(C(CCNC2CCC(N)CC2)c2cn(C3CCOCC3)c3ccccc23)c1` (stereo not drawn) [Compound 307, N1-(3-(1-(tetrahydro-2H-pyran-4-yl)-1H-indol-3-yl)-3-(m-tolyl)propyl) cyclohexane-1,4-diamine hydrochloride salt], the MIC in assay [1] (setting [3]) and in assay [2] was 64 µg/mL each time.
Take `Cc1cccc(C(CCNC2CCC(N)CC2)c2cn(CC3CCOCC3)c3ccc(C#N)cc23)c1` (stereo not drawn) [Compound 312, 3-(3-((4-aminocyclohexyl)amino)-1-(m-tolyl)propyl)-1-((tetrahydro-2H-pyran-4-yl)methyl)-1H-indole-5-carbonitrile hydrochloride salt]: the MIC in assay [1] (setting [3]) was 32 µg/mL; in assay [2], 64 µg/mL.
On to `Cl.Cl.NCCCNCCC(c1cccnc1)c1cn(CC2CCCCC2)c2ccccc12` (stereo not drawn) [Compound 321, N1-(3-(1-(cyclohexylmethyl)-1H-indol-3-yl)-3-(pyridin-3-yl)propyl)propane-1,3-diamine hydrochloride salt], for which the MIC in assay [1] (setting [4]) was 32 µg/mL; in assay [2], 64 µg/mL.
